Laboratory results taken from patent US20240423977A1, “FIVE-MEMBERED RING-FUSED SIX-MEMBERED RING COMPOUND, PREPARATION METHOD THEREFOR, AND PHARMACEUTICAL COMPOSITION AND USE THEREOF” (HANGZHOU POLYMED BIOPHARMACEUTICALS, INC., priority 2022, published 2024).

What was measured:
[1] = molecular target: IRAK4 protein in THP-1 cells (Homo sapiens (Human), UniProt Q9NWZ3); assay: PROTAC-induced IRAK4 protein degradation in THP-1 cells (Western Blot); format: cell-based; settings: concentration that degraded 50% of IRAK4, Western blotting, 24 hours after administration
Protocol: 2.1 Based on the experimental method of Western Blot, specific antibodies were used to stain the THP-1 cell samples treated by gel electrophoresis, and the degrading activity of the compounds on the IRAK4 protein in THP-1 cells was determined by analyzing the position and depth of staining. The concentrations of compound for the detection included 0 μM, 0.3 μM, 1 μM and 3 μM, and the cells were treated by the compound for 8 hours, 16 hours, 24 hours, and 48 hours. Glyceraldehyde-3-phosphate dehydrogenase (GAPDH) is an internal reference protein in this experiment.
Electrophoresis buffer: 50 mL MOPS SDS Running Buffer (20×) and 50 mL 20×TBS Tween-20 buffer were diluted with deionized water to 1 L as the electrophoresis buffer;
5% skim milk (w/v): 2.5 g skim milk was diluted with 50 mL 1×TBS Tween-20 buffer to prepare 5% skim milk;
5% BSA (w/v): 2.5 g BSA was diluted with 50 mL 1×TBS Tween-20 buffer to prepare 5% BSA;
Anti-IRAK4 antibody was diluted with 5% BSA at 1:1000 into a primary antibody working solution;
Goat Anti-Rabbit IgG H&L (HRP) was diluted with 5% BSA at 1:2000 into a second antibody working solution; and
Goat Anti-Mouse IgG H&L (HRP) was diluted with 5% BSA at 1:2000 into a second antibody working solution.
THP-1 cells were plated in a 6-well plate at a density of 1.5×10^6 cells per ml and incubated for 2 hours in a cell culture incubator under 37° C. and 5% CO2. The compound was diluted with DMSO to 0.6 mM, 0.2 mM and 0.06 mM respectively. 10 μL of compound solution was added to the corresponding wells, and continued to incubate in the incubator for 16 hours, 24 hours and 48 hours respectively. The compound-treated THP-1 cells in the well were collected, added with 120 μL of RIPA lysate containing protease inhibitor, Phosphatase Inhibitor Cocktail 2 and Phosphatase Inhibitor Cocktail 3, lysed on wet ice for 30 minutes, and then the cells lysate was centrifuged at a high speed and a low temperature for 5 minutes to collect the supernatant. The protein concentration of the cell sample was determined according to the instructions in the Pierce™ BCA Protein Assay Kit.
The concentration of the sample was adjusted to be consistent using lysis buffer and NuPAGE® LDS sample buffer containing 1M DTT. The samples were heated at 95° C. for 5 minutes and centrifuged at a low temperature and at a high speed. 20 μL of the prepared protein sample and 4 μL of PageRuler Prestained Protein Ladder were added into the gel well for running at 80V voltage for 0.5 hours, then the voltage was adjusted to 120V for further running for 1.5 hours. The gel was removed and the proteins in the gel were transferred to the IBlotTM 2 transfer membrane set at 20V. After successful transfer, bands at 65 kDa-40 kDa and 40 kDa-30 kDa were cut respectively. The membranes were blocked with 5% skim milk for 1 hour at room temperature. The membranes were washed three times with 1× concentration of TBST, then incubated with IRAK4 antibody working solution overnight at 4° C. The IRAK4 antibody working solution was discarded, and the membranes were washed three times with 1×concentration of TBST, and incubated with Goat Anti-Rabbit IgG H&L (HRP) working solution and Goat Anti-Mouse IgG H&L (HRP) working solution at room temperature. After 1 hour of incubation, the antibody working solution was discarded and the membranes were washed three times with 1× concentration of TBST. According to the instructions of the kit SuperSignal™ West Femto Maximum Sensitivity Substrate, the reagents in the kit were mixed in equal volume proportions to prepare a luminescent liquid mixture. The membranes were incubated for 1 minute, then removed for exposure.
The results of Western blotting 24 hours after administration of the compounds with a concentration of 1 μM were shown in Table 3: […]

[2] = molecular target: kinase IRAK4 (Homo sapiens (Human), UniProt Q9NWZ3); assay: Inhibitory effects of compounds on kinase activity (fluorescence microfluidic mobility detection, competitive with ATP); format: biochemical; settings: IRAK4 6 nM, ATP 10 μM
Protocol: Based on an experimental method of fluorescence microfluidic mobility detection, an IC50 value of competitive binding of kinase IRAK4 to ATP by the compounds was determined. The initial detection concentration of the compounds was 10 μM, diluted 4-fold gradient down to […], and tested in duplicate. Among them, commercial staurosporine was the standard control substance in this experiment.
1) IRAK4 kinase was dissolved in kinase buffer (50 mM HEPES pH 7.5, 10 mM MgCl2, 2 mM DTT and 0.01% Brij-35) to a final concentration of 6 nM.
2) The substrate peptide FAM-P8 and ATP were dissolved in the above kinase buffer. The final concentrations of the IRAK4 substrate peptide FAM-P8 and ATP were 3 μM and 10 μM respectively.
3) Dilution of the compounds: the compound was first diluted to 50 μM, and then diluted down with a 4-fold gradient of DMSO. The solution without the compound and kinase is used as a blank control, corresponding to the “minimum value” shown below; and the solution without the compound but with kinase, adenosine 5′-triphosphate disodium salt hydrate, DMSO and buffer is used as a positive control, corresponding to the “maximum value” shown below. 4) Kinase reaction and termination: 10 μL of kinase buffer was added to a 384-well plate containing 5 μL of the compound to be tested, and incubated at room temperature for 10 minutes. Another 10 μL of buffer containing the substrate peptide and adenosine 5′-triphosphate disodium salt hydrate was added to the 384-well plate. After incubation at 28° C. for one hour, 25 μL stop solution (100 mM HEPES pH 7.5, 50 mM EDTA, 0.2% Coating Reagent #3 and 0.015% Brij-35) was added to each well to terminate the reaction.
5) Data reading: the CaliperEZ Reader II instrument was used to read the conversion rate data. Conditions: downstream voltage −500V, upstream voltage −2250V, base pressure −0.5 PSI, and screening pressure −1.2 PSI.
6) Data calculation: the conversion rate data was copied from CaliperEZ Reader II and converted into inhibition rate data. The calculation formula is as follows:
[formula] • IC50 values were fitted using XLFit excel add-in version 5.4.0.8,
Y=Bottom+(Top−Bottom)/(1+(IC50/X)^HillSlope) Fitting formula: […]

Chain of IRAK4 protein in THP-1 cells (Q9NWZ3 whole entry): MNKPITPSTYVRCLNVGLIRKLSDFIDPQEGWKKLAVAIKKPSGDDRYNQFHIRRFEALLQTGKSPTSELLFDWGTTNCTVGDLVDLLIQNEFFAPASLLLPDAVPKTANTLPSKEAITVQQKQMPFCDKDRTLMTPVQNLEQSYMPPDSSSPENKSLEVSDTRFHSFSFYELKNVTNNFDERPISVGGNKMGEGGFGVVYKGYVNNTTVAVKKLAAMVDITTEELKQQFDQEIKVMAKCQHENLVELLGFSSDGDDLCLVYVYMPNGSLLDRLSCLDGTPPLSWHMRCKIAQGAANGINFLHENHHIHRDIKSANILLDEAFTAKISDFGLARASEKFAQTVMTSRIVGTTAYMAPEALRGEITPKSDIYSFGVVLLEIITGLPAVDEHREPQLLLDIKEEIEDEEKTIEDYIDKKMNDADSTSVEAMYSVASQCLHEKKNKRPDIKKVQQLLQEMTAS
Chain of kinase IRAK4 (Q9NWZ3 whole entry): as above

Structure (SMILES)	DC50 [1] [µM]	IC50 ([2]; Table 2, substrate FAM-P8 3 μM) [µM]	IC50 ([2]; Table 1, class symbols) [µM]
COc1cc2nn(C3CC4(CCN(C(=O)C5CCN(c6ccc7c(c6)CN(C6CCC(=O)NC6=O)C7=O)CC5)CC4)C3)cc2cc1NC(=O)c1cccc(C(F)(F)F)n1 (centres unmarked) [Compound I-7]	0.0036	0.0081	
COc1cc2nn(C3CC4(CCN(C(=O)C5(C)CCN(c6ccc7c(c6)C(=O)N(C6CCC(=O)NC6=O)C7=O)CC5)CC4)C3)cc2cc1NC(=O)c1cccc(C(F)(F)F)n1 (centres unmarked) [Compound I-37]	0.0207	0.0299	
COc1cc2nn(C3CC4(CCN(C(=O)C5(O)CCN(c6ccc7c(c6)C(=O)N(C6CCC(=O)NC6=O)C7=O)CC5)CC4)C3)cc2cc1NC(=O)c1cccc(C(F)(F)F)n1 (centres unmarked) [Compound I-33]	0.00805	0.0265	
COc1cc2nn(C3CCN(CC(=O)N4CCN(c5cccc6c5C(=O)N(C5CCC(=O)NC5=O)C6=O)CC4)CC3)cc2cc1NC(=O)c1cccc(C(F)(F)F)n1 (centres unmarked) [II-20]	0.0141	0.0055	
O=C1CCC(N2C(=O)c3ccc(N4CCC(C(=O)N5CCC6(CC5)CC(n5cc7cc(NC(=O)c8cccc(C(F)(F)F)n8)c(F)cc7n5)C6)CC4)cc3C2=O)C(=O)N1 (centres unmarked) [Compound I-53]	> 1	0.138	
COc1cc2nn(C3CC4(CCN(C5CCN(C(=O)c6ccc7c(c6)C(=O)N(C6CCC(=O)NC6=O)C7=O)CC5)CC4)C3)cc2cc1NC(=O)c1cccc(C(F)(F)F)n1 (centres unmarked) [Compound I-51]	0.149	0.00533	
CC(C)(O)c1cc2nn(C3CC4(CCN(C(=O)C5CCN(c6ccc7c(c6)C(=O)N(C6CCC(=O)NC6=O)C7=O)CC5)CC4)C3)cc2cc1NC(=O)c1cccc(C(F)(F)F)n1 (centres unmarked) [Compound I-5]	0.0036	0.0114	
COc1cc2nn(C3CC4(CCN(C(=O)C5CCN(c6ccc7c(c6)C(=O)N([C@H]6CCC(=O)NC6=O)C7=O)CC5)CC4)C3)cc2cc1NC(=O)c1cccc(C(F)(F)F)n1 [Compound I-65]	0.00371	0.0263	
COc1cc2nn(C3CCN(C(C)C(=O)N4CCN(c5ccc6c(c5)C(=O)N(C5CCC(=O)NC5=O)C6=O)CC4)CC3)cc2cc1NC(=O)c1cccc(C(F)(F)F)n1 (centres unmarked) [II-10]	0.00598	0.00745	< 0.1
COc1cc2nn(C3CC4(CCN(C5CC6(CCN(c7ccc8c(c7)C(=O)N(C7CCC(=O)NC7=O)C8=O)CC6)C5)CC4)C3)cc2cc1NC(=O)c1cccc(C(F)(F)F)n1 (centres unmarked) [Compound I-24]	0.0153	0.0174	
COc1cc2nn(C3CC4(CCN(C(=O)[C@H]5CC[C@H](C(=O)N[C@H](C(=O)N6C[C@H](O)C[C@H]6C(=O)N[C@@H](C)c6ccc(-c7scnc7C)cc6)C(C)(C)C)CC5)CC4)C3)cc2cc1NC(=O)c1cccc(C(F)(F)F)n1 [Compound I-29]	0.0163	0.074	
COc1cc2nn(C3CC4(CCN(C(=O)C5CCN(c6ccc7c(c6)C(=O)N(C6CCC(=O)NC6=O)C7=O)CC5(F)F)CC4)C3)cc2cc1NC(=O)c1cccc(N2CCOCC2)n1 (centres unmarked) [Compound I-55]	0.0146	0.0343	
COc1cc2nn(C3CC4(CCN(C(=O)C5CCN(c6ccc7c(c6)C(=O)N(C6CCC(=O)NC6=O)C7=O)CC5)CC4)C3)cc2cc1NC(=O)c1cnn2ccc(N3C[C@H]4C[C@@H]3CO4)nc12 (some centres unmarked) [Compound I-44]	0.00116	0.017	
COc1cc2nn(C3CCN(CC(=O)N4CCN(c5ccc6c(c5)CN(C5CCC(=O)NC5=O)C6=O)CC4)CC3)cc2cc1NC(=O)c1cccc(C(F)(F)F)n1 (centres unmarked) [II-7]	0.0022	0.00357	
COc1cc2nn(C3CC4(CCN(C(=O)C5CC6(C5)CN(c5ccc7c(c5)C(=O)N(C5CCC(=O)NC5=O)C7=O)C6)CC4)C3)cc2cc1NC(=O)c1cccc(C(F)(F)F)n1 (centres unmarked) [Compound I-17]	0.0259	0.031	
O=C1CCC(N2C(=O)c3ccc(N4CCN(C(=O)CN5CCC(n6cc7cc(NC(=O)c8cccc(C(F)(F)F)n8)c(OC(F)(F)F)cc7n6)CC5)CC4)cc3C2=O)C(=O)N1 (centres unmarked) [II-2]	0.0328	0.034	
O=C1CCC(N2C(=O)c3ccc(N4CCC(C(=O)N5CCC6(CC5)CC(n5cc7cc(NC(=O)c8cccc(C(F)(F)F)n8)c(N8CCOCC8)cc7n5)C6)CC4)cc3C2=O)C(=O)N1 (centres unmarked) [Compound I-9]	0.012	0.0329	
COc1cc2nn(C3CC4(CCN(CC5CCN(c6ccc7c(c6)C(=O)N(C6CCC(=O)NC6=O)C7=O)CC5)CC4)C3)cc2cc1NC(=O)c1cccc(C(F)(F)F)n1 (centres unmarked) [Compound I-13]	0.0158	0.00481	< 0.1
